# Measurements as given in US8883766B2, “Ion channel modulators and methods of use” (Vertex Pharmaceuticals Incorporated, priority 2007, dated 2014).
# Target: T1, NaV1.3 (Homo sapiens, UniProt Q9NY46)
# T1 construct: expressed in transfected cells
# Test: not given
# Conditions: read-out: TTX IC50; cited from earlier work
# T1 sequence (Q9NY46 whole entry): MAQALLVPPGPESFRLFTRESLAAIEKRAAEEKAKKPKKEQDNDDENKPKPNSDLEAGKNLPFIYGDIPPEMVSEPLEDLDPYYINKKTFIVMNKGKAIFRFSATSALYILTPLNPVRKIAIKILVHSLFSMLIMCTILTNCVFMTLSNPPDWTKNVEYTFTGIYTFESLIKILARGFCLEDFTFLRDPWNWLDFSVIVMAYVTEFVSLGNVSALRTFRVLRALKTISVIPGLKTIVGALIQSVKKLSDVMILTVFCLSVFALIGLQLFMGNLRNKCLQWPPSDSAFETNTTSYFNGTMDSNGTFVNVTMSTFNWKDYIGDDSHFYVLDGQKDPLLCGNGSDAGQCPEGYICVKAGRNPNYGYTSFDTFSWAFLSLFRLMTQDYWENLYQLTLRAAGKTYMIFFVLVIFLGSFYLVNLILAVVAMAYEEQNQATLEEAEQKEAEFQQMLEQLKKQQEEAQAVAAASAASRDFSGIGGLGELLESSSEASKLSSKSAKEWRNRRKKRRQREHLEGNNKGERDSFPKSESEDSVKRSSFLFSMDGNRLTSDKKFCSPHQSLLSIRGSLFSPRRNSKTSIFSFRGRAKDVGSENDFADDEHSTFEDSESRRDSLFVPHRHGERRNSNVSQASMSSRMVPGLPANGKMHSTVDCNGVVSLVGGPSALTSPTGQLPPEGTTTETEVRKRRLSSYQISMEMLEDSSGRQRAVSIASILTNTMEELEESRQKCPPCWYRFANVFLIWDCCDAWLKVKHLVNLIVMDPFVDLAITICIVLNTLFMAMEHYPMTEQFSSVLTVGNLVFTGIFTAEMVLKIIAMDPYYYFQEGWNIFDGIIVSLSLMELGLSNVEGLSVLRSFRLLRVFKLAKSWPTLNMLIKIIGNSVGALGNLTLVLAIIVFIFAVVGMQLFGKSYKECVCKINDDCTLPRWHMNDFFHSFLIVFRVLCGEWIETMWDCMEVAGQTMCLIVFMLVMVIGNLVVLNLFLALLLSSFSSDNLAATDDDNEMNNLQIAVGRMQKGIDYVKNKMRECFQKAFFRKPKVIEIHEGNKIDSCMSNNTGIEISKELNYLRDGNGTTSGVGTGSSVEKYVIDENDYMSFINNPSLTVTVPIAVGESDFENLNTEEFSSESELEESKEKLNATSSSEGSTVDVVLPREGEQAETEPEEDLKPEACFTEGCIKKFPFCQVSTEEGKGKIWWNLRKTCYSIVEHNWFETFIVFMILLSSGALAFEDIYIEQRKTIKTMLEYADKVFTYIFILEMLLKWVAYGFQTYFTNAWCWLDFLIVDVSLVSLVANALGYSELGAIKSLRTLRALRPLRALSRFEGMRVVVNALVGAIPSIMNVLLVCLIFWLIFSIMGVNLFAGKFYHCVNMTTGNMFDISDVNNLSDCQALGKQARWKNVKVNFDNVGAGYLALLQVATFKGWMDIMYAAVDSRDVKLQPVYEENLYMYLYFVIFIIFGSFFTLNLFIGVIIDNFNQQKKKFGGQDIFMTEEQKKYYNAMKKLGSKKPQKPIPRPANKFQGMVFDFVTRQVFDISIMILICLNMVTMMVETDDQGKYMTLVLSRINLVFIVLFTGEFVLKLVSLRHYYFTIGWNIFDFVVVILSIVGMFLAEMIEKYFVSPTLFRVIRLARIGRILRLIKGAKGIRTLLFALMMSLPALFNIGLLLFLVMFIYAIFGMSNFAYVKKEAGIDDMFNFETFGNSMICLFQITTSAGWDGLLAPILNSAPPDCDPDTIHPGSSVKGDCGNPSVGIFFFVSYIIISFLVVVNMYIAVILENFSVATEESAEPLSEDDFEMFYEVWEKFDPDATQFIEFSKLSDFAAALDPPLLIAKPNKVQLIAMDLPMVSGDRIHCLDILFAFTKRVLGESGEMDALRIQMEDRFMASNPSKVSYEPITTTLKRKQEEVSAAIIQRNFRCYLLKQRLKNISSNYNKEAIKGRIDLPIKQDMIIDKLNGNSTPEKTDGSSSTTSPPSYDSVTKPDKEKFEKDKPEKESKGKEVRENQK
row,SMILES,IC50 [µM]
1,"NC1=N[C@H](O)[C@H]2[C@H]3O[C@]4(O)O[C@@H]([C@@H](O)[C@@]2(N1)[C@@H]4O)[C@]3(O)CO [TTX, tetrodotoxin]",0.015

# Target: T1, NaV1.3
# Test: VIPR optical membrane potential assay with electrical stimulation, HEK293 cells stably expressing NaV1.3
# Type: cell-based
# Conditions: compound activity for the NaV1.3 receptors
# Method: Compounds of the invention are useful as antagonists of voltage-gated sodium ion channels. Antagonist properties of test compounds were assessed as follows. Cells expressing the NaV of interest were placed into microtiter plates. After an incubation period, the cells were stained with fluorescent dyes sensitive to the transmembrane potential. The test compounds were added to the microtiter plate. The cells were stimulated with either chemical or electrical means to evoke a NaV dependent membrane potential change from unblocked channels, which was detected and measured with trans-membrane potential-sensitive dyes. Antagonists were detected as a decreased membrane potential response to the stimulus. The optical membrane potential assay utilized voltage-sensitive FRET sensors described by Gonzalez and Tsien (See, Gonzalez, J. E. and R. Y. Tsien (1995) “Voltage sensing by fluorescence resonance energy transfer in single cells” Biophys J 69(4): 1272-80, and Gonzalez, J. E. and R. Y. Tsien (1997) “Improved indicators of cell membrane potential that use fluorescence resonance energy transfer” Chem Biol 4(4): 269-77) in combination with instrumentation for measuring fluorescence changes such as the Voltage/Ion Probe Reader (VIPR®) (See, Gonzalez, J. E., K. Oades, et al. (1999) “Cell-based assays and instrumentation for screening ion-channel targets” Drug Discov Today 4(9): 431-439).
# The following is an example of how NaV1.3 inhibition activity is measured using the optical membrane potential method #2. Other subtypes are performed in an analogous mode in a cell line expressing the NaV of interest.
# HEK293 cells stably expressing NaV1.3 are plated into 96-well microtiter plates. After an appropriate incubation period, the cells are stained with the voltage sensitive dyes CC2-DMPE/DiSBAC2(3) as follows.
# 2×CC2-DMPE=20 μM CC2-DMPE: 10 mM CC2-DMPE is vortexed with an equivalent volume of 10% pluronic, followed by vortexing in required amount of HBSS containing 10 mM HEPES. Each cell plate will require 5 mL of 2×CC2-DMPE. 50 μL of 2×CC2-DMPE is added to wells containing washed cells, resulting in a 10 μM final staining concentration. The cells are stained for 30 minutes in the dark at RT.
# 2×DISBAC2(3) with ABSC1=6 μM DISBAC2(3) and 1 mM ABSC1: The required amount of 10 mM DISBAC2(3) is added to a 50 ml conical tube and mixed with 1 μL 10% pluronic for each mL of solution to be made and vortexed together. Then HBSS/HEPES is added to make up 2× solution. Finally, the ABSC1 is added.
# The 2×DiSBAC2(3) solution can be used to solvate compound plates. Note that compound plates are made at 2× drug concentration. Wash stained plate again, leaving residual volume of 50 μL. Add 50 μL/well of the 2×DiSBAC2(3) w/ ABSC1. Stain for 30 minutes in the dark at RT.
# The electrical stimulation instrument and methods of use are described in ION Channel Assay Methods PCT/US01/21652, herein incorporated by reference. The instrument comprises a microtiter plate handler, an optical system for exciting the coumarin dye while simultaneously recording the coumarin and oxonol emissions, a waveform generator, a current- or voltage-controlled amplifier, and a device for inserting electrodes in well. Under integrated computer control, this instrument passes user-programmed electrical stimulus protocols to cells within the wells of the microtiter plate.
# Use the current-controlled amplifier to deliver stimulation wave pulses for 3 s. Two seconds of pre-stimulus recording are performed to obtain the un-stimulated intensities. Five seconds of post-stimulation recording are performed to examine the relaxation to the resting state.
# Data are analyzed and reported as normalized ratios of background-subtracted emission intensities measured in the 460 nm and 580 nm channels. Background intensities are then subtracted from each assay channel. […]
row,SMILES,IC50 [µM]
1,"CCOC(=O)NS(=O)(=O)c1ccc(N2CCN(C(=O)[C@@H](C)N3CCCc4cc(F)ccc43)CC2)cc1 [Compound 41, (R)-ethyl 4-(4-(2-(6-fluoro-3,4-dihydroquinolin-1(2H)-yl)propanoyl)piperazin-1-yl)phenylsulfonylcarbamate]",> 5
2,C[C@H](C(=O)Nc1ccc(S(=O)(=O)NC(=O)N2CCN(C)CC2)cc1)n1ccc2c(F)cccc21 [Compound 57],> 5
3,COC(=O)NS(=O)(=O)c1ccc(NC(=O)Cn2ccc3cccc(F)c32)cc1 [Compound 69],> 5
4,COC(=O)NS(=O)(=O)c1ccc(NC(=O)COc2ccnc3c(C(F)(F)F)cccc23)cc1 [Compound 60],> 5
5,COC(=O)NS(=O)(=O)c1ccc(NC(=O)Cn2ccc3ccc(Cl)cc32)cc1 [Compound 70],> 5
6,COC(=O)NS(=O)(=O)c1ccc(NC(=O)CCc2ccc(OC)cc2)cc1 [Compound 48],> 5
7,CCC#CCOC(=O)NS(=O)(=O)c1ccc(NC(=O)[C@@H](C)n2ccc3c(F)cccc32)cc1 [Compound 76],> 5
8,"CNC(=O)NS(=O)(=O)c1ccc(NC(=O)[C@@H](C)n2ccc3c(F)cccc32)cc1 [Compound 31, (R)-2-(4-fluoro-1H indol-1-yl)-N-(4-(N-(methylcarbamoyl)sulfamoyl)phenyl)propanamide]",> 5
9,COC(=O)NS(=O)(=O)c1ccc(NC(=O)COc2ccc(F)c(Cl)c2)cc1 [Compound 3],> 5
10,COC(=O)NS(=O)(=O)c1ccc(NC(=O)Cn2ccc3cc(F)c(F)cc32)cc1 [Compound 8],> 5
11,COC(=O)NS(=O)(=O)c1ccc(NC(=O)[C@H](C)Oc2cccc(Cl)c2Cl)cc1 [Compound 65],> 5
12,"Cc1cc(C(=O)NS(=O)(=O)c2ccc(NC(=O)[C@@H](C)n3ccc4c(F)cccc43)cc2)c(C)o1 [Compound 66, (R)—N-(4-(2-(4-fluoro-1H indol-1-yl)propanamido)phenylsulfonyl)-2,5-dimethylfuran-3-carboxamide]",> 5
13,"COC(=O)NS(=O)(=O)c1ccc(NC(=O)[C@@H](CC(C)C)n2ccc3c(F)cccc32)cc1 [Compound 23, (R)-methyl 4-(2-(4-fluoro-1H-indol-1-yl)-4-methylpentanamido) phenylsulfonylcarbamate]",< 2
14,COC(=O)NS(=O)(=O)c1ccc(NC(=O)Cn2ccc3cc(Cl)ccc32)cc1 [Compound 26],> 5
15,COC(=O)NS(=O)(=O)c1ccc(NC(=O)[C@H](CC(C)C)N2CCCc3cc(Cl)ccc32)cc1 [Compound 5],> 5
16,"COC(=O)NS(=O)(=O)c1ccc(NC(=O)C(C)Oc2cccc(Cl)c2Cl)cc1 (stereo in doubt) [Compound 58, (R)-methyl 4-(2,3-dichlorophenoxy)propanamido) phenylsulfonylcarbamate]",> 5
17,C[C@H](C(=O)Nc1ccc(S(=O)(=O)NC(=O)C2CC2)cc1)n1ccc2c(F)cccc21 [Compound 21],> 5

row,SMILES,IC50 [µM]
1,COc1ccccc1C(=O)NS(=O)(=O)c1ccc(NC(=O)COc2ccnc3c(C(F)(F)F)cccc23)cc1 [Compound 49],> 5
2,COC(=O)NS(=O)(=O)c1ccc(NC(=O)[C@@H](C)N2CCCc3ccccc32)cc1 [Compound 47],> 5
3,COC(=O)NS(=O)(=O)c1ccc(NC(=O)Cn2ccc3cc(F)ccc32)cc1 [Compound 27],> 5
4,"COC(=O)NS(=O)(=O)c1ccc(N2CCN(C(=O)[C@@H](C)N3CCCc4cc(F)ccc43)CC2)cc1 [Compound 61, (R)-methyl 4-(4-(2-(6-fluoro-3,4-dihydroquinolin-1(2H)-yl)propanoyl)piperazin-1-yl)phenylsulfonylcarbamate]",> 5
5,COC(=O)NS(=O)(=O)c1ccc(NC(=O)[C@H](C)N2CCCc3cc(F)ccc32)cc1 [Compound 67],> 5
6,COC(=O)NS(=O)(=O)c1ccc(NC(=O)C(C)n2ccc3cc(Cl)ccc32)cc1 (centres unmarked) [Compound 20],2 to 5
7,COC(=O)NS(=O)(=O)c1ccc(NC(=O)[C@H](C)N2CCCc3ccccc32)cc1 [Compound 84],> 5
8,COC(=O)NS(=O)(=O)c1ccc(NC(=O)[C@@H](C(C)C)N2CCCc3cc(Cl)ccc32)cc1 [Compound 10],2 to 5
9,COC(=O)NS(=O)(=O)c1ccc(NC(=O)CCn2ccc3cc(Cl)ccc32)cc1 [Compound 51],> 5
10,"COC(=O)NS(=O)(=O)c1ccc(N2CC[C@H](N3CCCc4cc(Cl)ccc43)C2=O)cc1 [Compound 53, (S)-methyl 4-(3-(6-chloro-3,4-dihydroquinolin-1(2H)-yl)-2-oxopyrrolidin-1-yl)phenylsulfonylcarbamate]",> 5
11,COC(=O)NS(=O)(=O)c1ccc(NC(=O)Cn2cc(C)c3ccccc32)cc1 [Compound 12],> 5
12,COC(=O)NS(=O)(=O)c1ccc(NC(=O)[C@H](C)n2ccc3c(F)cccc32)cc1 [Compound 17],> 5
13,COC(=O)NS(=O)(=O)c1ccc(NC(=O)Cn2c(C)cc3cc(Cl)ccc32)cc1 [Compound 33],> 5
14,"COC(=O)NS(=O)(=O)c1ccc(NC(=O)[C@@H](C)N2CCCc3cc(Cl)ccc32)cc1 [Compound 6, (R)-methyl 4-(2-(6-chloro-3,4-dihydroquinolin-1(2H)-yl)propanamido)phenylsulfonylcarbamate]",< 2
15,COC(=O)NS(=O)(=O)c1ccc(NC(=O)C(C)n2ccc3c(F)cccc32)cc1 (centres unmarked) [Compound 59],< 2
16,COC(=O)NS(=O)(=O)c1ccc(NC(=O)Cn2cc(C#N)c3ccccc32)cc1 [Compound 19],> 5
17,COC(=O)NS(=O)(=O)c1ccc(NC(=O)c2cc3c(F)cccc3[nH]2)cc1 [Compound 15],> 5
